Results filed as inconclusive are left out. The source made the active and inactive calls. No rule for the calls is given here.
tested on: C. albicans CaCi-8 + fluconazole, Alamar Blue growth, 48 h; test: resistant C. albicans growth inhibition with fluconazole, dose response, CaCi-8 strain, Alamar Blue fluorescence (AID 2423)

Row | Structure (SMILES) | EC50
1 | CCCc1ccc(OCC(=O)Nc2cc(S(=O)(=O)CC)ccc2O)cc1 | 0.439 µM
2 | CCCCC(=O)NNC(=S)NC(=O)c1ccc(C)cc1 | 7.76 µM
3 | CCOc1ccc(-n2c(O)c(/C=N/Nc3nc(C)cc(C)n3)c3ccccc3c2=O)cc1 | > 15 µM (inactive)
4 | COc1cc(OC)cc(C(=O)Oc2c(CN3CCOCC3)cc(Cl)c3cccnc23)c1 | 2.62 µM
5 | CC(C)C(Sc1nc(-c2ccccc2)cc(-c2ccccc2)c1C#N)C(=O)O (stereo unspecified) | 3.77 µM
6 | O=C1c2ccccc2NC(c2ccc(-c3ccc(Br)cc3)o2)N1O (stereo unspecified) | 2.12 µM
7 | O=CNCCCc1nc2ccccc2n1Cc1cccc2ccccc12 | 3.52 µM
8 | Cc1nc2ccccc2cc1OCc1ccccc1 | 1.62 µM
9 | O=C(O)c1cnc(-c2ccccc2)nc1Sc1ccccc1Cl | > 16 µM (inactive)
10 | CC(C)(C)c1ccc(CSc2cnn(C(C)(C)C)c(=O)c2Cl)cc1 | 0.324 µM
11 | COc1ccc(-c2cc(-c3c(O)c(OC)c4occc4c3OC)[nH]n2)cc1 | > 15 µM (inactive)
12 | O=C(O)c1cnc(-c2ccccc2)nc1Sc1ccc(Cl)cc1 | > 15 µM (inactive)
13 | O=C(NCc1ccc(F)cc1)C(c1ccccc1)N(CC1CCCO1)C(=O)Cn1nnc2ccccc21 (stereo unspecified) | 1.16 µM
14 | Cc1ccc(S(=O)(=O)N(C)c2ccc(OCC(=O)Nc3nnc(C4CC4)s3)cc2)cc1 | 0.708 µM
15 | Cc1ccc(OCC(=O)N/N=C\c2c(C)[nH]n(-c3ccccc3)c2=O)c([N+](=O)[O-])c1 | 6.6 µM
16 | COc1ccc(OC)c(NC(=O)C(=O)/C=C(\O)c2cc(OC)ccc2OC)c1 | > 15 µM (inactive)
17 | Cc1ccc(/C=C2\SC(=S)N(/N=C/c3cc([N+](=O)[O-])ccc3O)C2=O)o1 | 3.33 µM
18 | O=c1oc2ccccc2c(O)c1Cc1cc(Cl)c2cccnc2c1O | 2.75 µM
19 | CC(c1ccc(Cl)cc1)n1c(-c2ccc3ccccc3n2)n[nH]c1=S (stereo unspecified) | 5.26 µM

Row | Structure (SMILES) | EC50
20 | O=Cc1ccc(O)c2ncccc12 | 1.45 µM
21 | O=C(NCc1ccco1)c1sc(=S)n2c1[nH]c(=O)c1ccccc12 | 0.212 µM
22 | O=C(NCC1CCCO1)c1cc2n(n1)C(C(F)(F)F)CC(c1ccc(Br)cc1)N2 (stereo unspecified) | 7.57 µM
23 | CC(=O)Nc1ccc(NC(=O)CCCN2C(=O)c3ccccc3C2=O)cc1 | > 15 µM (inactive)
24 | S=C(NCCN1CCOCC1)NC1CCCC1 | > 15 µM (inactive)
25 | COc1cccc(/C=N/Nc2nccnc2Cl)c1O | 1.8 µM
26 | CCN(CC)c1ccc2cc(S(=O)(=O)c3ccc(C)cc3)c(=O)oc2c1 | 0.657 µM
27 | O=C(CN1C(=O)COc2ccccc21)NCCCN1CCc2ccccc2C1 | > 15 µM (inactive)
28 | CCN=c1scc(C)n1/N=C/c1ccc(O)c(O)c1O | > 15 µM (inactive)
29 | CC[n+]1c(/C=C/C=C/c2ccc(N(C)C)cc2)sc2ccccc21 | < 0.12 µM
30 | CCC1=NN(C(=O)c2ccccc2O)C(O)(c2ccccc2)C1 (stereo unspecified) | 7.37 µM
31 | O=C(N/N=C/c1sc(N2CCOCC2)nc1-c1ccccc1)c1cccc(S(=O)(=O)N2CCOCC2)c1 | 1.15 µM
32 | Cn1c(=O)c(C(=O)NCCc2ccccc2)c(O)c2ccccc21 | 13 µM
33 | CCCCN(C)S(=O)(=O)c1ccc(C(=O)Nc2nnc(-c3ccco3)o2)cc1 | > 16 µM (inactive)
34 | CCN(CC)c1ccc(/C=N/NC(=O)c2cccc(S(=O)(=O)N3CCOCC3)c2)c(O)c1 | 0.513 µM
35 | Oc1ccc(/C=N/NP(=S)(c2ccccc2)c2ccccc2)c(O)c1O | 8.83 µM
36 | Cc1cc(OC(=O)c2ccco2)c2c3c(c(=O)oc2c1)CCCC3 | 0.953 µM
37 | Cc1c(Cl)c([N+](=O)[O-])nn1Cc1ccc(C(=O)N/N=C\c2cc(Cl)ccc2O)o1 | 1.03 µM
38 | CCOC(=O)c1cnc(-n2cc(C)cn2)nc1Nc1ccccc1OCC | 12.5 µM

Row | Structure (SMILES) | EC50
39 | O=C(Nc1cccc(-c2cn3c(n2)SCC3)c1)c1ccc(Br)o1 | 2.71 µM
40 | COc1cc(OC)c2cc(C(=O)N/N=C/c3ccccc3O)[nH]c2c1 | 1.24 µM
41 | CCCCCCCCCCCCCCCC[N+](C)(C)C | > 15 µM (inactive)
42 | CN(C/C=C/C#CC(C)(C)C)Cc1cccc2ccccc12 | 2.59 µM
43 | Cc1ncc(CO)c(/C=N/NC(=S)Nc2ccc(Cl)c(Cl)c2)c1O | 1.88 µM
44 | O=C(N/N=C/c1cc([N+](=O)[O-])ccc1O)C1C2CCCCC21 (stereo unspecified) | 2.16 µM
45 | Cc1nnc(NC(=O)c2c(-c3ccccc3Cl)noc2C)s1 | 3.08 µM
46 | CC(C(=O)c1ccccc1)[n+]1cccc(Br)c1 (stereo unspecified) | > 15 µM (inactive)
47 | O=C(NC(=S)Nc1ccccc1O)c1ccc(Cl)cc1Cl | 0.624 µM
48 | C=CCc1cccc(/C=N/NC(=O)CNc2cccc3ccccc23)c1O | 3.11 µM
49 | NS(=O)(=O)c1cccc(NC(=S)NCc2ccc3c(c2)OCO3)c1 | > 16 µM (inactive)
50 | Nc1nn2cc(-c3ccc(Br)cc3)nc2c2ccccc12 | 0.962 µM
51 | CC(=O)Nc1ccc(N2CCCCC2)c(C(=O)Nc2cccc(C)c2)c1 | > 16 µM (inactive)
52 | CCc1ccc(/C=C/C(=O)c2cc(Br)ccc(=O)c2O)cc1 | 0.833 µM
53 | Cc1cc(C(=O)Nc2sc3c(c2C#N)CCCC3)no1 | 0.979 µM
54 | NC(=S)NNc1cccc(Cl)c1 | > 16 µM (inactive)
55 | COc1ccccc1N1CCN(C(=O)c2cc3cc(Cl)ccc3[nH]2)CC1 | > 15 µM (inactive)
56 | S=c1[nH]nc(C2CCCCC2)n1/N=C/c1ccc(Br)s1 | 1.94 µM

Reference: PubChem BioAssay AID2423 (Broad Institute, 2010)
